The record followed here is the OligoGym collection.

Where “and” joins values, the source holds several entries; their conditions need not be identical. Equal entries are not always repeated. After the bases stand the sugars from the 5' end (letter, count) and the backbone: PS all phosphorothioate, else s phosphorothioate and o phosphodiester by linkage. Methylation of C is not given here. e = 2'-O-(2-methoxyethyl) (MOE); k = constrained ethyl (cEt); d = 2'-deoxy (DNA)

In one series the target is DGAT2. The conditions noted are these: ASO, HepG2, 0.12 µM.
As to “TGGAACTTCTTCTGGACCCA (sugars e5 d10 e5, PS)”, the target mRNA inhibition is 43%.
The same measure, in the same setting: the value for “TGGACAAGTCCTGCCCATCT (sugars e5 d10 e5, PS)” was 72%; that for “TGGACCCATCGGCCCCAGGA (sugars e5 d10 e5, PS)” was 52%.
Turning to “TGGAGTAGGGCACCAGCCCC (sugars e5 d10 e5, PS)”, the target mRNA inhibition was found to be 28%.
Same read-out and setting: the value for “TGGCACTAAGCTAGGCACAC (sugars e5 d10 e5, PS)” was 62%.
The sequence “TGTAATGGTTTAGCAAAATT (sugars e5 d10 e5, PS)” showed a target mRNA inhibition of 26%.
Same read-out and setting: under “TGTCCTTATCAAAATCCCTC (sugars e5 d10 e5, PS)” stands 38%.
The same measure, in the same setting: the value for “TGTGTTCCAGTCAAACACCA (sugars e5 d10 e5, PS)” was 23%.
The sequence “TTCTTCTGGACCCATCGGCC (sugars e5 d10 e5, PS)” showed a target mRNA inhibition of 44%.
For “TTGCCACTCCCATTCTTTGA (sugars e2 d13 e5, PS)”, the target mRNA inhibition amounted to 57%.
The same measure, in the same setting: under “TTGCCACTCCCATTCTTTGA (sugars e3 d14 e3, PS)” stands 59%.
On the same count and under the same terms, the value for “TTGCGGTTCCGCAGGGTGAC (sugars e5 d10 e5, PS)” was 70%; that for “TTGTGTGTCTTCACCAGCTG (sugars e3 d14 e3, PS)” was 60%.
Consider “TTGTGTGTCTTCACCAGCTG (sugars e5 d10 e5, PS)”, for which the target mRNA inhibition was 63% and 73%.
On the same count and under the same terms, the value for “TTTCCCATGGGAGAAGATAA (sugars e5 d10 e5, PS)” was 55%; that for “TTTCGGACCCACTGTGACCT (sugars e5 d10 e5, PS)” was 65%.
“TTTGGAACTAATCTGCTGCT (sugars e5 d10 e5, PS)” showed a target mRNA inhibition of 50%.

The same series, now with this note: ASO, HepG2, 2.5 µM.
Take “TGCTCAGTTCTTCCAACCAG (sugars e5 d10 e5, PS)”: the target mRNA inhibition was 86% and 79%.
Still for that read-out and setting: under “TGCTTATCCTTGAGGGTCTC (sugars e5 d10 e5, PS)” stands 64%; under “TGGATAGTCGATTTACCAGA (sugars e5 d10 e5, PS)”, 62%; under “TGGTGGTTGCAATGTTGCCA (sugars e5 d10 e5, PS)”, 88% and 80%.
The same measure, in the same setting: the value for “TGGTTGCAATGTTGCCATCA (sugars e5 d10 e5, PS)” was 94% and 78%; that for “TGTGATGACTTCCCAGGGTC (sugars e5 d10 e5, PS)” was 85%.
With “TTAGCTCTCAGTGAAGCTGG (sugars e5 d10 e5, PS)”, the target mRNA inhibition was determined as 93%.
Same read-out and setting: the value for “TTAGGCATGCTTCCTCCCAC (sugars e5 d10 e5, PS)” was 78%; that for “TTCCATTTTTTACCCAACCT (sugars e5 d10 e5, PS)” was 57%.
“TTCCTTTGAAATCCAATGCA (sugars e5 d10 e5, PS)”: the target mRNA inhibition was 63%.
In turn, “TTGTCCTAGTGCCCCAGGGA (sugars e5 d10 e5, PS)” yielded a target mRNA inhibition of 75%.
Turning to “TTTGCTCAGTTCTTCCAACC (sugars e5 d10 e5, PS)”, the target mRNA inhibition was 72% and 70%.

The series is the same for the next values; noted with them: ASO, HepG2, 10 µM.
Take “TGCTCAGTTCTTCCAACCAG (sugars e5 d10 e5, PS)”: the target mRNA inhibition is 93% and 94%.
Still for that read-out and setting: the value for “TGCTTATCCTTGAGGGTCTC (sugars e5 d10 e5, PS)” was 84%; that for “TGGATAGTCGATTTACCAGA (sugars e5 d10 e5, PS)” was 90%; that for “TGGTGGTTGCAATGTTGCCA (sugars e5 d10 e5, PS)” was 92% and 91%.
On the same count and under the same terms, under “TGGTTGCAATGTTGCCATCA (sugars e5 d10 e5, PS)” stands 94% and 93%.
Still for that read-out and setting: the value for “TGTGATGACTTCCCAGGGTC (sugars e5 d10 e5, PS)” was 76%; that for “TTAGCTCTCAGTGAAGCTGG (sugars e5 d10 e5, PS)” was 82%.
Take “TTAGGCATGCTTCCTCCCAC (sugars e5 d10 e5, PS)”: the target mRNA inhibition was found to be 68%.
The same measure, in the same setting: under “TTCCATTTTTTACCCAACCT (sugars e5 d10 e5, PS)” stands 93%.
Same read-out and setting: the value for “TTCCTTTGAAATCCAATGCA (sugars e5 d10 e5, PS)” was 86%; that for “TTGTCCTAGTGCCCCAGGGA (sugars e5 d10 e5, PS)” was 85%.
Regarding “TTTGCTCAGTTCTTCCAACC (sugars e5 d10 e5, PS)”, the target mRNA inhibition is 93% and 92%.

In the next series the target is IRF5. The note with it: ASO, KARPAS-229, 0.44444 µM.
In turn, ACCATTCTATGCCTTT (sugars k3 d10 k3, PS) displayed a target mRNA inhibition of 44%.

The same series, now with this note: ASO, KARPAS-229, 1.33333 µM.
ACCATTCTATGCCTTT (sugars k3 d10 k3, PS) yielded a target mRNA inhibition of 60%.

Still in this series, the particulars now being: ASO, KARPAS-229, 4 µM.
As to “AAGGGCACAGCGCAGG (sugars k3 d9 k3 e1, PS)”, the target mRNA inhibition was 3%.
Still for that read-out and setting: under “AAGGGCACAGCGCAGG (sugars kekdddddddddeekk, PS)” stands 0%; under “AAGGGCACAGCGCAGG (sugars kkkdddddddddkeke, PS)”, 0%; under “AAGGGCACAGCGCAGG (sugars kkkddddddddkekek, PS)”, 0%.
AATAGGAGTGAGACGA (sugars k3 d10 k3, PS) had a target mRNA inhibition of 25%.
Same read-out and setting: under AATTTTGCATTCCATA (sugars k3 d10 k3, PS) stands 41%.
Still for that read-out and setting: under AATTTTGTGACTGTAT (sugars k3 d10 k3, PS) stands 0%.
On the same count and under the same terms, under “ACCACTGTGTACCCCA (sugars kkdddddddddkekek, PS)” stands 17%.
In turn, “ACCACTGTGTACCCCA (sugars kkkddddddddkdkdk, PS)” returned a target mRNA inhibition of 40%.
Same read-out and setting: the value for ACCATTCTATGCCTTT (sugars k3 d10 k3, PS) was 70% and 74%; that for “ACCATTCTATGCCTTT (sugars kddddddddddkekek, PS)” was 0%.
Same read-out and setting: the value for “ACCATTCTATGCCTTT (sugars kdddddddddkekeke, PS)” was 10%.
The sequence “ACCATTCTATGCCTTT (sugars kkddddddddddkeke, PS)” registered a target mRNA inhibition of 51%.
With “ACTGACACAGGCGGAT (sugars k2 d8 e4 k2, PS)”, the target mRNA inhibition was 0%.
The same measure, in the same setting: the value for “AGATGGTGTTATCTCC (sugars k3 d9 k3 e1, PS)” was 0%; that for “AGATGGTGTTATCTCC (sugars kekdddddddddeekk, PS)” was 0%.
“AGCTTGGTCTTGACCT (sugars kdddddddddkekeke, PS)” gave a target mRNA inhibition of 14%.
In turn, “AGCTTGGTCTTGACCT (sugars kkddddddddddkeke, PS)” came in with a target mRNA inhibition of 0%.
Still for that read-out and setting: under “AGCTTGGTCTTGACCT (sugars kkdddddddddkekek, PS)” stands 8%; under “AGCTTGGTCTTGACCT (sugars kkkddddddddkekek, PS)”, 3%; under “AGGAAGTGAGTCTCAA (sugars kkddddddddkekekk, PS)”, 20%.
Still for that read-out and setting: the value for “AGGAAGTGAGTCTCAA (sugars kkkdddddddddkeke, PS)” was 21%.
Turning to “AGGAGTGAGACGAGCA (sugars k3 d9 k3 e1, PS)”, the target mRNA inhibition was found to be 37%.
As for “AGGAGTGAGACGAGCA (sugars kkkddddddddkekek, PS)”, the target mRNA inhibition was 24%.
The same measure, in the same setting: the value for AGGGCACAGCGCAGGT (sugars k3 d10 k3, PS) was 2%; that for AGGGTGAGTAGGACGA (sugars k3 d10 k3, PS) was 19%; that for “AGGTTCTTGGACTCTC (sugars k3 d9 k3 e1, PS)” was 19%.
In turn, “AGGTTCTTGGACTCTC (sugars kkddddddddddkeke, PS)” came in with a target mRNA inhibition of 41%.
Take “AGGTTCTTGGACTCTC (sugars kkddddddddkekekk, PS)”: the target mRNA inhibition is 0%.
As to “AGTCATGGGCGTGAGGC (sugars kdddddddddkekeked, PS)”, the target mRNA inhibition amounted to 17%.
The same measure, in the same setting: under AGTGAGTCTCAAACCA (sugars k3 d10 k3, PS) stands 0%; under ATCACCACTGTGTACC (sugars k3 d10 k3, PS), 11%; under “ATCACCACTGTGTACC (sugars kdddddddddkekeke, PS)”, 0%.
Same read-out and setting: under “ATCACCACTGTGTACC (sugars kkddddddddddkeke, PS)” stands 0%; under “ATCACCACTGTGTACC (sugars kkkddddddddkekek, PS)”, 0%; under ATGAGTCATGGGCTGA (sugars k3 d10 k3, PS), 21%.
Same read-out and setting: the value for “ATGAGTCATGGGCTGA (sugars kekddddddddkeekk, PS)” was 0%; that for “ATGAGTCATGGGCTGA (sugars kkddddddddkekekk, PS)” was 0%.
“ATGAGTCATGGGCTGA (sugars kkkdddddddddkeke, PS)” gave a target mRNA inhibition of 9%.
Regarding “ATGAGTCATGGGCTGA (sugars kkkddddddddkdkdk, PS)”, the target mRNA inhibition is 0%.
On to “ATGGTGTTATCTCCGT (sugars kkddddddddkekekk, PS)”, for which the target mRNA inhibition came to 0%.
On the same count and under the same terms, under CAACATCCATCAATGA (sugars k3 d10 k3, PS) stands 0%.
CAATGCAACATCCATC (sugars k3 d10 k3, PS) displayed a target mRNA inhibition of 0%.
Still for that read-out and setting: the value for CACATCTCCACATCAG (sugars k3 d10 k3, PS) was 45%; that for “CACATCTCCACATCAG (sugars kdddddddddkekeke, PS)” was 2%.
Still for that read-out and setting: the value for “CACATCTCCACATCAG (sugars kekdddddddddeekk, PS)” was 26%; that for “CACATCTCCACATCAG (sugars kkddddddddddkeke, PS)” was 23%; that for “CACATCTCCACATCAG (sugars kkkdddddddddkeke, PS)” was 38%.
For “CACATCTCCACATCAG (sugars kkkddddddddkdkdk, PS)”, the target mRNA inhibition stood at 39%.
Take “CACTGACACAGGCGGA (sugars kdddddddddddekek, PS)”: the target mRNA inhibition worked out at 0%.
Regarding “CACTGACACAGGCGGA (sugars kkddddddddddkeke, PS)”, the target mRNA inhibition was 0%.
Same read-out and setting: the value for “CACTGACACAGGCGGA (sugars kkdddddddddkekek, PS)” was 0%; that for “CACTGACACAGGCGGA (sugars kkkddddddddkdkdk, PS)” was 0%; that for CAGGTTCTTGGACTCT (sugars k3 d10 k3, PS) was 0%.
On the same count and under the same terms, under “CAGGTTCTTGGACTCT (sugars kddddddddddkekek, PS)” stands 0%.

Still in this series, the particulars now being: ASO, KARPAS-229, 12 µM.
With ACCATTCTATGCCTTT (sugars k3 d10 k3, PS), the target mRNA inhibition worked out at 86%.
